Measurements taken from article PMC7702303, “Biochemical and transcript level differences between the three human phosphofructokinases show optimisation of each isoform for specific metabolic niches” (Biochemical Journal, 2020).

Key:
[1] = target: T1, recombinant human PFK-M (Homo sapiens, UniProt P08237); test: ALDO-TIM-G3PDH enzyme-linked kinetic assay, PFK-M; assay type: biochemical; conditions: modulator 1100 µM
T1 construct: made in house; host or cells: PFK-deficient Saccharomyces cerevisiae
T1 sequence (P08237 1-780): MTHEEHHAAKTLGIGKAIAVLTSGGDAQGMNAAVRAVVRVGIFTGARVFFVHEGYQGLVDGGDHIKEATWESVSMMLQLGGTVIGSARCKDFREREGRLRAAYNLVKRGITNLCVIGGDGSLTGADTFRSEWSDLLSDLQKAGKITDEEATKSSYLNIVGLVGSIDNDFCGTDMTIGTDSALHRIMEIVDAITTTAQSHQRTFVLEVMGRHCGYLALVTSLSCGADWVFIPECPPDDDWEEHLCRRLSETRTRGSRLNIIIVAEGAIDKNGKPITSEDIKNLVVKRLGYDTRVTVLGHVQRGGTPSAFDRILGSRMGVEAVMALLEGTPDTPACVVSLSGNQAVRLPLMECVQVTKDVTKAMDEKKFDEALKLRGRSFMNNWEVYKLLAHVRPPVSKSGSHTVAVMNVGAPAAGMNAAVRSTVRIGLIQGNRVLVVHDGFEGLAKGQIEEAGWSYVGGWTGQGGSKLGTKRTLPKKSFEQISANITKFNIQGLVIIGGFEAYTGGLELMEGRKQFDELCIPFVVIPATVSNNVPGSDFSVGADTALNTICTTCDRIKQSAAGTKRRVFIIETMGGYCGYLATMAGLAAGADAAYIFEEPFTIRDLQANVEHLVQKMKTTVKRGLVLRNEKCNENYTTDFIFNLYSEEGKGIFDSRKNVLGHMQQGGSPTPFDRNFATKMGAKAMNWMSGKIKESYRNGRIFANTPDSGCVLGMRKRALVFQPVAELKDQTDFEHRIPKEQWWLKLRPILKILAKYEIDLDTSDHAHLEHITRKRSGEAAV
Method: (§1) Recombinant human PFKs were expressed in PFK-deficient Saccharomyces cerevisiae and purified using the methods described previously, adapting earlier materials and protocols. Production of PFK intended for use in ATP titration experiments used 1 mM F6P as a tetramer stabilising agent in protein purification and storage buffers. Production of PFK intended for use in F6P titration experiments used 1 mM ATP as a tetramer stabilising agent in protein purification and storage buffers. Experimental details on the purification and characterisation procedures including figures showing SDS–PAGE gels of the highly pure PFKs used in the kinetic experiments described in this work have been recently published.
(§2) Assay buffer consisted of 50 mM TEA, 100 mM KCl, 10 mM MgCl2, 1 mM Tris(2-carboxyethyl)phosphine hydrochloride (TCEP), 10% glycerol, pH 7.4. Assay mix consisted of 5 units/ml glycerol-3-phosphate dehydrogenase (G3PDH, Sigma–Aldrich G6880), 2.5 units/ml aldolase (Sigma–Aldrich A2714), 25 units/ml triosephosphate isomerase (TIM, Sigma–Aldrich T6258), and 1.25 mM NADH. ATP and F6P were obtained from Sigma–Aldrich (A2383 and F3627, respectively). For ATP titrations, 38 µl of buffer or ligand were added to a clear non-binding 96-well plate. 40 µl of assay mix containing 10 mM F6P (final concentration 4 mM) was added and the plate was incubated at 25°C for 5 min. An amount of 2 µl of PFK isoforms were added to each well from stock concentrations of 150 µg/ml and the reaction was immediately started with 20 µl of ATP at varying concentrations. For F6P titrations, 30 µl of buffer or ligand was added to a clear non-binding 96-well plate. An amount of 40 µl of assay mix containing 1.25 mM ATP (final concentration 0.5 mM) was added and the plate was incubated at 25°C for 5 min. An amount of 5 µl of PFK isoforms were added to each well from stock concentrations of 200 µg/ml and the reaction was immediately started with 20 µl F6P at varying concentrations. All ligands and substrates (including ATP) were used at pH 7.4. All metabolites were obtained from Sigma–Aldrich unless otherwise stated. […] A SpectraMax M5 Multi-Mode Microplate Reader was used to measure A340nm at 13 s intervals for 10 min. All experiments were performed in triplicate unless otherwise stated.
(§3) Time-dependent absorbance change was converted into rate of NADH oxidation (µM s^−1) or specific activity (µmol min^−1 mg protein^−1) using the Beer-Lambert law (molar extinction coefficient of NADH 6.22 mM^−1 cm^−1). The initial rate of reaction was used to avoid accumulation of ADP, which activates PFK, interfering with the determination of kinetic properties. Non-linear regression analysis was performed on substrate titration data using GraphPad Prism 7, with curves fitted using allosteric sigmoidal models, enabling determination of steady-state kinetic values.

[2] = target: T2, recombinant human PFK-L (Homo sapiens, UniProt P17858); test: ALDO-TIM-G3PDH enzyme-linked kinetic assay, PFK-L; assay type: biochemical; conditions: PFK-L, modulator 1100 µM
T2 construct: made in house; host or cells: PFK-deficient Saccharomyces cerevisiae
T2 sequence (P17858 1-780): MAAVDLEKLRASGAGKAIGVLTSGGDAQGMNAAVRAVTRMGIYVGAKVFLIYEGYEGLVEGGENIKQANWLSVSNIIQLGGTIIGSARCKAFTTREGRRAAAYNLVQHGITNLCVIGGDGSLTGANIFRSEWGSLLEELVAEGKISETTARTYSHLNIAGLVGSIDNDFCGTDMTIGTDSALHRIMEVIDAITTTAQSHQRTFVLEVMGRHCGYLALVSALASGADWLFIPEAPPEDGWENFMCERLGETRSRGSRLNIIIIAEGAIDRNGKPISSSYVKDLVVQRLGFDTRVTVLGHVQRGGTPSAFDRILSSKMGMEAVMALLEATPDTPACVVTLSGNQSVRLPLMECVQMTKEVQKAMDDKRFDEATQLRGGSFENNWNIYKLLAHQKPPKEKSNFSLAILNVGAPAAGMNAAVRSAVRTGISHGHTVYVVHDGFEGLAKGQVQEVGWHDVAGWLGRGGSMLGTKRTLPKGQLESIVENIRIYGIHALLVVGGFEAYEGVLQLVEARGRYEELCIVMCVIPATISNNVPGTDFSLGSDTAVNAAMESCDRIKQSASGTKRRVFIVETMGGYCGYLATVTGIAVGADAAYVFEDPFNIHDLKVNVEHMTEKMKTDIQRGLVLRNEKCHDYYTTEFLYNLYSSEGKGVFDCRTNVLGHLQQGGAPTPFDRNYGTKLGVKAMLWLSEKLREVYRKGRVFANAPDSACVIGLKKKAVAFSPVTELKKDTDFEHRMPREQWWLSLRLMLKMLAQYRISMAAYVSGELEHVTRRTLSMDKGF
Method: as §1, §2, §3

[3] = target: T3, recombinant human PFK-P (Homo sapiens, UniProt Q01813); test: ALDO-TIM-G3PDH enzyme-linked kinetic assay, PFK-P; assay type: biochemical; conditions: modulator 1100 µM
T3 construct: made in house; host or cells: PFK-deficient Saccharomyces cerevisiae
T3 sequence (Q01813 1-784): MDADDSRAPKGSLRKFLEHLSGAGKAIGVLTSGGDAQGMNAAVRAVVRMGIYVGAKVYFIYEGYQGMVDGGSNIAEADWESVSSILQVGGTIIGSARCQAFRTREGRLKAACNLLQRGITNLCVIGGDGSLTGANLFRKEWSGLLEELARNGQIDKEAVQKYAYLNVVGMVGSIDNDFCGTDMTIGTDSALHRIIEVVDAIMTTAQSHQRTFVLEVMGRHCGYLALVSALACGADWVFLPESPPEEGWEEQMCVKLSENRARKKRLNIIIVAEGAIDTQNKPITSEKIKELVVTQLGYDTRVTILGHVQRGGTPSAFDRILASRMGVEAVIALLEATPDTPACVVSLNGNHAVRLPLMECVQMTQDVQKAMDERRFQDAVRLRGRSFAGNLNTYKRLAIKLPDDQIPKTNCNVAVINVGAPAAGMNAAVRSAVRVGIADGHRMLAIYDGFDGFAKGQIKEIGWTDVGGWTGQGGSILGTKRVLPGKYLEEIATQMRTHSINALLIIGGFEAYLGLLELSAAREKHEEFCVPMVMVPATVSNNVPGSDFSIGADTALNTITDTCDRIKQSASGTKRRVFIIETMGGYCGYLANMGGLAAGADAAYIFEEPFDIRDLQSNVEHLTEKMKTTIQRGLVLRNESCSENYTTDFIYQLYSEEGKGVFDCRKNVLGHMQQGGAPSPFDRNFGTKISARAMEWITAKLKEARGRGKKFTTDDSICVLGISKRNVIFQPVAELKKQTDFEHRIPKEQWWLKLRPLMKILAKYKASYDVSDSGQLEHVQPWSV
Method: as §1, §2, §3

[4] = test system: PFKM; conditions: PFKM; ref Sanchez-Martinez et al., 2000; read-out: Kact; cited from earlier work
[5] = test system: PFKL; conditions: ref Van Schaftingen et al 1981; cited from earlier work
[6] = test system: PFK; set-up: key to Effect (activator or inhibitor of PFK): “+” indicates activator; “-“ indicates inhibitor; conditions: cited from earlier work; for Effect (activator or inhibitor of PFK): published literature, ref selected references in Supplementary Table 1
[7] = test system: monocyte-derived macrophages; set-up: method as in FANTOM5 database; conditions: n = 3, ref FANTOM5 database, cited from earlier work
[8] = test system: PFKP; conditions: ref Sanchez-Martinez et al., 2000; cited from earlier work

Nc1nc2c(ncn2[C@@H]2O[C@H](COP(=O)(O)OP(=O)(O)O)[C@@H](O)[C@H]2O)c(=O)[nH]1 [GDP]
change in kcat^ATP/K0.5^ATP compared with control PFK without modulator [1]: +4.3%
change in kcat^ATP/K0.5^ATP compared with control PFK without modulator [2]: −48%
K0.5ATP + modulator ([2]; F6P 4mM, N=3, mean (SD)): 404.4 (65.6) M
VmaxATP + modulator ([2]; F6P 4mM, N=3, mean (SD)): 44.20 (2.84) moles/min/mg
change in kcat^ATP/K0.5^ATP compared with control PFK without modulator [3]: −0.2%
K0.5ATP + modulator ([3]; F6P 4mM, N=3, mean (SD)): 924.6 (367.7) M
VmaxATP + modulator ([3]; F6P 4mM, N=3, mean (SD)): 31.48 (4.42) moles/min/mg

O=C(COP(=O)(O)O)[C@@H](O)[C@H](O)[C@H](O)COP(=O)(O)O [F16BP, fructose 1,6-bisphosphate]
EC50 [4]: 1.5 µM
IC50 or AC50 (activator) [5]: 40 µM
Effect (activator or inhibitor of PFK) [6]: +

[K+] [K+]
Effect (activator or inhibitor of PFK) [6]: +

lipopolysaccharide [LPS]
PFK-P transcript level ([7]; monocyte-derived macrophages activated by LPS): 10.3 × baseline
PFK-L transcript level ([7]; monocyte-derived macrophages after LPS stimulation): 1.9 × baseline

Nc1nc2c(ncn2[C@@H]2O[C@@H]3COP(=O)(O)O[C@H]3[C@H]2O)c(=O)[nH]1 [cGMP]
Effect (activator or inhibitor of PFK) [6]: -

O=C1O[C@H]([C@@H](O)CO)C(O)=C1O [Ascorbate]
Effect (activator or inhibitor of PFK) [6]: -

Actin
Effect (activator or inhibitor of PFK) [6]: +

O=P(O)(O)O [PO4 3-]
IC50 or AC50 (activator) [8]: 300 µM
Effect (activator or inhibitor of PFK) [6]: +

O=P(O)(O)OC[C@H]1O[C@H](OP(=O)(O)O)[C@H](O)[C@@H](O)[C@@H]1O [G16BP]
IC50 or AC50 (activator) [5]: 100 µM
Effect (activator or inhibitor of PFK) [6]: +

Lactate
Effect (activator or inhibitor of PFK) [6]: -
IC50 ([6]; value marked *, asterisk not explained, ref Costa Leite et al., 2007, read-out: IC50 or AC50 (inhibitor)): 4600 µM

N [NH4+]
IC50 or AC50 (activator) [8]: 400 µM
Effect (activator or inhibitor of PFK) [6]: +

B1: Band 3: protein, PFK inhibitor in the published literature (protein, UniProt P02730 1-911, looked up)
Band 3 anion transport protein: MEELQDDYEDMMEENLEQEEYEDPDIPESQMEEPAAHDTEATATDYHTTSHPGTHKVYVELQELVMDEKNQELRWMEAARWVQLEENLGENGAWGRPHLSHLTFWSLLELRRVFTKGTVLLDLQETSLAGVANQLLDRFIFEDQIRPQDREELLRALLLKHSHAGELEALGGVKPAVLTRSGDPSQPLLPQHSSLETQLFCEQGDGGTEGHSPSGILEKIPPDSEATLVLVGRADFLEQPVLGFVRLQEAAELEAVELPVPIRFLFVLLGPEAPHIDYTQLGRAAATLMSERVFRIDAYMAQSRGELLHSLEGFLDCSLVLPPTDAPSEQALLSLVPVQRELLRRRYQSSPAKPDSSFYKGLDLNGGPDDPLQQTGQLFGGLVRDIRRRYPYYLSDITDAFSPQVLAAVIFIYFAALSPAITFGGLLGEKTRNQMGVSELLISTAVQGILFALLGAQPLLVVGFSGPLLVFEEAFFSFCETNGLEYIVGRVWIGFWLILLVVLVVAFEGSFLVRFISRYTQEIFSFLISLIFIYETFSKLIKIFQDHPLQKTYNYNVLMVPKPQGPLPNTALLSLVLMAGTFFFAMMLRKFKNSSYFPGKLRRVIGDFGVPISILIMVLVDFFIQDTYTQKLSVPDGFKVSNSSARGWVIHPLGLRSEFPIWMMFASALPALLVFILIFLESQITTLIVSKPERKMVKGSGFHLDLLLVVGMGGVAALFGMPWLSATTVRSVTHANALTVMGKASTPGAAAQIQEVKEQRISGLLVAVLVGLSILMEPILSRIPLAVLFGIFLYMGVTSLSGIQLFDRILLLFKPPKYHPDVPYVKRVKTWRMHLFTGIQIICLAVLWVVKSTPASLALPFVLILTVPLRRVLLPLIFRNVELQCLDADDAKATFDEEEGRDEYDEVAMPV
Effect (activator or inhibitor of PFK) [6]: -
